# Assay results as given in PubChem BioAssay AID179 (DTP/NCI, 2004).
# Active and inactive are the calls of the source.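 Rule for the calls: active = compounds giving half or more protection of infected cells from virus-caused growth loss, again on retest; inactive = the rest.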 Where a SMILES comes first, the peptide text is derived from it. [ ]: non-standard residue; d: D form. The star is where a group is joined. NMeF = CN[CH](Cc1ccccc1)C(=O)O; NMeV = CN[CH](C(=O)O)C(C)C; Boc = CC(C)(C)OC(=O)*
# Test system: CEM cells HIV-1 protection, formazan growth assay
# Experiment: NCI AIDS Antiviral Assay
# Conditions: for IC50: measured here: growth of uninfected CEM cells
# In short: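 Category rules: moderately active means at least 50% protection on retest, and confirmed active means 100% protection reproducibly. The underlying data came from a formazan growth assay in HIV-1-infected CEM cells.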
Structure (SMILES),EC50,IC50,outcome
C=C(C)C1CC2=C(O1)C(=O)c1cccc(O)c1C2=O (stereo not given),> 2 µM,0.468 µM,–
Nc1c(Br)cc2c([nH]c(=O)c3cc(Br)ccc32)c1Br,> 200 µM,38.9 µM,–
CN(C)c1ncnc2c1ncn2C1OC(CO)C2NP(=O)(N(CCCl)CCCl)OC21 (stereo not given),> 200 µM,> 200 µM,–
CN(C)CCC(=O)c1ccccc1,–,–,inactive
O=C(Nc1ccc(Cl)cc1)NS(=O)(=O)c1coc2cc(F)ccc2c1=O,> 200 µM,63.1 µM,–
C1=CC2(C=C1)OC21CCC2(C=CC3(C2)OC3C2CCCCC2)CC1 (stereo not given),> 200 µM,51.3 µM,–
C/C(=N\NC(=S)NCCNC(=S)N/N=C(\C)c1ccccn1)c1ccccn1,> 200 µM,3.39 µM,–
COC(=O)/C=C\C1C(C(=O)OC)C2(C(=O)OC)CCC1(C(=O)OC)N2 (stereo not given),–,–,inactive
N#Cc1c(N)c2c(c(-c3ccccc3)c1-c1ccccc1)C(=O)N(NC(=O)c1ccccc1)C2=O,75.9 µM,102 µM,–
O=C1c2ccccc2C(=O)c2nc3ccc(Cl)cc3cc21,> 6.17 µM,> 6.17 µM,–
N#Cc1ccc(Nc2cnc3ccc(N)cc3n2)cc1,> 10.5 µM,> 10.5 µM,–
CC1C(O)Oc2cc3c(cc2C1c1ccccc1O)OCO3 (stereo not given),> 200 µM,35.5 µM,–
COC(=O)[C@H](Cc1ccccc1)NC(=O)N(CCC#N)CCCCN(CCC#N)C(=O)N[C@@H](Cc1ccccc1)C(=O)OC,> 200 µM,115 µM,–
CC(C)=CC[P+](CCC[P+](CC=C(C)C)(c1ccccc1)c1ccccc1)(c1ccccc1)c1ccccc1,> 57.5 µM,> 57.5 µM,–
CCOC(=O)C1=CC(C)(C(=O)OCC)Nc2c(nc(SC)n(C)c2=O)N1 (stereo not given),> 200 µM,145 µM,–
COc1ccc(/C=N/N=C(\N)NO)c(O)c1,> 200 µM,10.5 µM,–
CCN1c2nc3ccccc3nc2N(CC)c2nc3ccccc3nc21,> 200 µM,41.7 µM,–
Cc1cc(-n2c(C)ccc2C)no1,> 200 µM,> 200 µM,–
CC(C)=CCC[C@@H](C)C1=C(O)C(Nc2ccccc2Cl)=C(C)C(=O)C1=O,> 200 µM,6.31 µM,–
S=c1cn[nH]c2c(Br)cccc12,> 89.1 µM,67.6 µM,–
COC(=O)CN(CC1O[C@@H]2OC(C)(C)O[C@@H]2C1NC(C)=O)C(=O)OCc1ccccc1 (stereo not given in full),> 200 µM,> 200 µM,–
CNC(=O)N(CCC#N)CCCN(C(=O)N(C)C)c1ccccc1,> 200 µM,> 200 µM,–
CC/C(=N\NS(=O)(=O)c1ccccc1)c1ccccc1,–,–,inactive

Structure (SMILES),EC50,IC50,outcome
Oc1cc2cc(-c3ccccc3)[nH]c2c2ccccc12,> 200 µM,31.6 µM,–
CCCCCN(CCCCC)c1ccc(/C=C/c2ccnc3ccccc23)cc1,> 67.6 µM,> 67.6 µM,–
Cc1nn2c(nnn2CCO)c1-c1ccccc1,> 1020 µM,407 µM,–
O=c1[nH]nc(Cc2ccccc2)n1/N=C/c1cccnc1,56.2 µM,> 200 µM,–
OC/C=C/c1ccc(Cl)cc1,–,–,inactive
COC(=O)C1OC12CCCCC2 (stereo not given),> 200 µM,> 200 µM,–
C/C=C(/CCCCCOCOCCOC)[Si](C)(C)C,> 324 µM,> 324 µM,–
COc1cccc(-c2nc(-c3cnccn3)n(COCCO)n2)c1,> 200 µM,> 200 µM,–
C[C@H]1C(=O)c2c(cc(O)c(C3OC(CO)C(O)C(O)C3O)c2O)OC1c1ccc(O)c(O)c1 (stereo not given in full),–,–,inactive
CCOC(=O)NC(OCCN(C)C)(C(F)(F)F)C(F)(F)F,> 200 µM,> 200 µM,–
CN1CN(c2ccccc2)C2(CCN(CCc3csc4ccccc34)CC2)C1=O,> 200 µM,28.8 µM,–
COC1(C)C[C@@]23CC[C@@H]4C(C)(C(=O)O)CCCC4(C)[C@@H]2CC[C@@H]1C3 (stereo not given in full),> 200 µM,120 µM,–
CC(C)=CC(=O)c1c(C(=O)O)nc2ccccc2[n+]1[O-],–,–,inactive
O=C1OC(Cl)C(N=P(c2ccccc2)(c2ccccc2)c2ccccc2)=C1Cl (stereo not given),> 12.3 µM,9.33 µM,–
CC(=O)Oc1ccc2c(c1)O/C(=C\c1ccc(N(C)C)cc1)C2=O,> 200 µM,28.8 µM,–
Cc1ccc(S(=O)(=O)[C@@H](Cl)[C@H]2N=C(Cl)NN=C2c2ccccc2)cc1,> 200 µM,37.2 µM,–
CCOC(=O)c1c(C)[nH]c(=S)c(C#N)c1-c1ccc(Cl)cc1,> 200 µM,43.7 µM,–
N#Cc1cc([N+](=O)[O-])ccc1NC(=O)C(=O)C(C(=O)/C=C/c1ccccc1)C1OC(=O)c2ccccc21 (stereo not given),> 191 µM,> 191 µM,–
O=C(N/C(=C\c1cccc([N+](=O)[O-])c1)c1nc2c3c(ccc2[nH]1)C(=O)c1ccccc1C3=O)c1ccccc1,–,–,inactive
CC1S(=O)C(C)S(=O)C(C)S1=O (stereo not given),–,–,inactive
CCOC(=O)NC(C)(C)CN(CCO)C(=O)OCC,> 200 µM,> 200 µM,–
CC1=C(C(=O)Nc2ccccc2C)C(c2ccc(Cl)c(Cl)c2)C(C(=O)Nc2ccccc2C)=C(C)N1,–,–,inactive
CC(C)C(NC(=O)OC(C)(C)C)C(=O)N(C)C(Cc1ccccc1)C(=O)N(C)C(C(=O)N(C)C(C(=O)O)C(C)C)C(C)C (stereo not given) (Boc-V[NMeF][NMeV][NMeV]-OH; configuration not given here),> 200 µM,> 200 µM,–

Structure (SMILES),EC50,IC50,outcome
O=C1CS(=O)(=O)C(c2ccc(F)cc2)N1N1C(=O)CS(=O)(=O)C1c1ccc(F)cc1 (stereo not given),> 200 µM,> 200 µM,–
CC(C)(C)OC(=O)N1CCCC1C(=O)NC(c1ccccc1)c1ccccc1 (stereo not given),> 200 µM,> 200 µM,–
O=C1C=C(c2[nH]c3ccccc3c2C2=CC(=O)c3ccccc3C2=O)C(=O)c2ccccc21,–,–,inactive
O=C(CC1(O)C(=O)Nc2c(Cl)cc(Cl)cc21)c1ccc2ccccc2c1 (stereo not given),> 49 µM,20.4 µM,–
CC(C)OP(=O)(OC(C)C)/C(C#N)=C/c1ccco1,> 200 µM,> 200 µM,–
Cc1cc(=O)oc2cc(NCS(=O)(=O)O)ccc12,> 617 µM,> 617 µM,–
O=C(Nc1cccc(O)c1)C(=O)C(C(=O)c1ccc(Cl)c(Cl)c1)C1OC(=O)c2ccccc21 (stereo not given),> 141 µM,64.6 µM,–
N.N.N.N.[Cl-].[Co+3].[N-]=[N+]=[N-].[N-]=[N+]=[N-],–,–,inactive
O=C(O)C(C(=O)O)P(=S)(S)c1ccccc1 (stereo not given),> 4570 µM,> 4570 µM,–
COc1ccc(OC)c2c3c(ccc12)C(C)(c1ccccc1)OC3=O (stereo not given),> 191 µM,89.1 µM,–
NS(=O)(=O)c1nnc(NS(=O)(=O)c2ccccc2C(=O)O)s1,> 200 µM,> 200 µM,–
CCOC(=O)c1sc2c(c1OC(=O)c1ccc(Cl)cc1Cl)c(=O)n(-c1ccccc1)c(=S)n2-c1ccccc1,> 200 µM,0.0871 µM,–
C[C@@H]1C[C@@H]2OC(=O)[C@]3(C)[C@H]2[C@@H](OC3(C)O)[C@]2(C)C(=O)C=C[C@@H]12 (stereo not given in full),> 316 µM,5.75 µM,–
Cc1ccnc2c1C(=O)C(=O)C=C2N1CCC(C)CC1,–,–,inactive
COC(=O)c1cc(Cl)ccc1NC(=O)C1CCCCC1,–,–,inactive
Nc1cc(C(=O)O)ccc1O,> 200 µM,39.8 µM,–
CC1(C)c2ccccc2C(O)C12CCC(=O)CC2 (stereo not given),> 200 µM,> 200 µM,–
CC(=O)O[C@@H]1CC(C)C2CC2C2=C(C(O)OC2O)[C@@H]1C(C)CCC=C(C)C (stereo not given in full),> 69.2 µM,58.9 µM,–
COc1ccc(Nc2nc3ccc(C(F)(F)F)cc3nc2C(=O)O)cc1,> 200 µM,20.4 µM,–
Cc1ccc(NC(=O)CC(=O)N2N=C(N3CCCCC3)CC2c2ccccc2)cc1 (stereo not given),> 200 µM,> 200 µM,–
C=CCNC(=S)NNC(=S)NCC=C,> 200 µM,23.4 µM,–
O=C(CCCC(=O)Nc1ccc(Cl)cc1Cl)CC(=O)c1ccc2ccccc2c1,> 417 µM,> 417 µM,–
O=c1c(I)c[nH]cc1I,> 200 µM,> 200 µM,–

Structure (SMILES),EC50,IC50,outcome
Cc1ccc2c(c1)C(=O)C1(C2)Cc2cccc(C)c2C1=O (stereo not given),> 200 µM,> 200 µM,–
CCOP(=O)(OCC)/C(=C\NC(=S)N=Nc1c(O)[nH]c2ccccc12)C(=O)OC,> 200 µM,117 µM,–
O=C1c2ccccc2C(=O)c2cc3c(cc21)CS(=O)C3,–,–,inactive
Clc1ccccc1C1SCc2nc3ccccc3n21 (stereo not given),–,–,inactive
COc1ccc(S(=O)Cc2ccc(C(=O)O)cc2[N+](=O)[O-])cc1 (stereo not given),> 741 µM,631 µM,–
CC(C)=Cc1cc(C(=O)Nc2ccc(Cl)c(Cl)c2)nc(N)n1,> 741 µM,490 µM,–
C#CCOCC12C=CC(O1)C1COC(=O)C12 (stereo not given),> 200 µM,> 200 µM,–
CC(=O)[C@@]1(c2ccccc2)N(C(=O)c2ccccc2)[C@@]1(C)C(=O)c1ccccc1,> 646 µM,562 µM,–
Oc1ccccc1C=NCCN=Cc1ccccc1O.[CH3][Sn]([CH3])([Cl])[Cl],–,–,inactive
OCC(O)C(OC1OC(CO)C(O)C(O)C1O)c1nn(-c2ccc(Cl)cc2)c2nc3cc(Cl)ccc3nc12 (stereo not given),–,–,inactive
Cc1cc2[nH]c3c(C#N)c(O)c(C)c(=O)n3c2cc1C,> 166 µM,> 166 µM,–
CC1=C(C(=O)N(C)c2ccc(Cl)c(C(=O)OC(C)C)c2)SCCO1,> 240 µM,93.3 µM,–
Cc1cc2cc3ccc4cccc5ccc(c2oc1=O)c3c45,–,–,inactive
CN(NC(=O)CCCl)C1=NCCCCN1,> 200 µM,> 200 µM,–
COC(=O)/C([Se]c1c(C)cc(C)cc1C)=C(/[Se]c1c(C)cc(C)cc1C)C(=O)OC,–,–,inactive
Cc1ncc2c(n1)CCC1=C2OS(=O)(=O)CC1N(C)C (stereo not given),> 200 µM,38.9 µM,–
CN(C)CCNC(c1ccccc1)C(O)c1ccccc1 (stereo not given),–,–,inactive
O=C1C=CC(=O)c2cc(Sc3ccccc3)c(=O)ccc21,> 123 µM,1.26 µM,–
COc1cc2c(c3c1C=CCO3)C(=O)c1ccccc1C2=O,–,–,inactive
Clc1ccc(C2c3ccccc3-c3nc4ccccc4n32)cc1 (stereo not given),> 200 µM,> 200 µM,–
O=c1[nH]c(=O)n(C2OC(CO)C(O)C2O)cc1F (stereo not given),> 20 µM,0.00631 µM,–
Cc1cc(C(C)C)cc(O)c(=O)c1,–,–,inactive
